# Target: T1, CODH ICh (Carboxydothermus hydrogenoformans, UniProt P59934)
# T1 sequence (P59934 2-636): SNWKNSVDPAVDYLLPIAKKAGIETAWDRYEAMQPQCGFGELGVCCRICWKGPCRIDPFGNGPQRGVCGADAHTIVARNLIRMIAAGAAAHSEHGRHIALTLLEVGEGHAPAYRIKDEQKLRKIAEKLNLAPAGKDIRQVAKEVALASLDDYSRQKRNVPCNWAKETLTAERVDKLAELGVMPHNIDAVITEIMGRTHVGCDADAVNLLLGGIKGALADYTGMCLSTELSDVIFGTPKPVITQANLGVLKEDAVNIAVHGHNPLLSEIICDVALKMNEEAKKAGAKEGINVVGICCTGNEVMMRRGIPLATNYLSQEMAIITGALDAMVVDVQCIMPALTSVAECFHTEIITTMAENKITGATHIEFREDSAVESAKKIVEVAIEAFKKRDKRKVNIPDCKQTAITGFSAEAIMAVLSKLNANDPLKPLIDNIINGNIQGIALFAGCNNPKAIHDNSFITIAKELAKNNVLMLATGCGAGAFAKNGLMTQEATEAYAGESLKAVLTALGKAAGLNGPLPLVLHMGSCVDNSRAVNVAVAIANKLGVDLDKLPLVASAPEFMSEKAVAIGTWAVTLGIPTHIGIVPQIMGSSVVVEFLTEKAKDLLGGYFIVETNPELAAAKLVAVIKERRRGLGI
# Type: biochemical
structure (smiles),measurement,value
N#CO [cyanate],"chronoamperometry, inactivation half-time at 6.7 mM cyanate",~ 90 seconds

# From PMC3955222 (Chembiochem : a European journal of chemical biology, 2013)
